{
  "source": "patent US6310247A",
  "about": "“7-aryl-6(Z)-heptatrienoic acid retinamides” (Hoffmann-LA Roche Inc., priority 1999, dated 2001)",
  "key": {"[1]": {"system": "MDA 435 cells", "assay": "Cell growth inhibition: MTT assay, MDA 435 (ER- breast carcinoma)", "assay_type": "cell-based", "settings": "Homo sapiens, MDA435, read-out: % inhibition of cell growth compared to no drug control", "description": "ER- breast carcinoma, human (MDA-435) obtained from Dr. Janet Price, MDA Cancer Center, Houston, Tex., were grown in Gibco's RPMI 1640 media supplemented with sodium pyruvate, 10% FBS and 13 ng/mL gentamicin. Cells were incubated at 37° C., 4.5% CO2 and 95.5% humidified air.\n(§1) 1. Cell growth inhibition: MTT Assay\n(§2) The compounds of formula 1 were tested for ability to inhibit cell growth using the standard MTT assay, a tetrazolium-based assay which measures the viability of cells in culture. Cells were harvested upon reaching 70-80% confluency and pelleted. The cells were then resuspended in medium in which FBS was replaced with Hyclone's Charcoal/Dextran stripped FBS, and seeded (2 mL/well) into 6-well plates (Corning) at a density allowing for linear growth over a four day assay period. Compounds of formula 1 (10 mM stock in dimethylsulfoxide (DMSO)) were added 18-24 hours post-seeding. Compound dilutions were prepared in the appropriate growth media and added to the cells for final concentrations of 10, 3.3 and 1 μM in 0.1% DMSO. At 24, 48 and 72 hr. time points, MTT (3-[4,5-dimethylthiazol-2-yl-2,5-diphenyltetrazolium bromide) stock solution (5mg/mL in 1 PBS) was added to the cells plates (625 μL/well) which were then incubated for 2.5 hours. Liquid was aspirated from the wells and 1 mL/well of 95% ethanol was added to solubilize the formazan reaction product. The plates were shaken (Bellco Mini-Orbital Shaker) for 15 minutes. The solubilized formazan was then transferred (50 μls) into a 96-well plate and the optical densities (OD) were measured (Bio-Tek Microplate Reader) at 570 nm and reference wavelength of 660 nm. Percentage of inhibition of cell growth was calculated according to the following formula: [formula]"}, "[2]": {"system": "ZR-75-1 cells", "assay": "Cell growth inhibition: MTT assay, ZR-75-1 (ER+ breast carcinoma)", "assay_type": "cell-based", "settings": "Homo sapiens, read-out: % inhibition of cell growth compared to no drug control", "description": "(§3) ER+ breast carcinoma, human (ZR-75-1) obtained from ATCC (CRL 1500), were grown in Gibco's RPMI 1640 media supplemented with sodium pyruvate, 10% FBS and 13 ng/mL gentamicin. Cells were incubated at 37° C., 4.5% CO2 and 95.5% humidified air.\nas §1, §2"}, "[3]": {"system": "ZR-75-1 cells", "assay": "Apoptosis: cell death detection by ELISA, ZR-75-1", "assay_type": "cell-based, human", "settings": "for fold induction at 1 µM / fold induction at 3.3 µM / fold induction at 10 µM: Homo sapiens, read-out: Fold induction of apoptosis compared to no drug control", "description": "as §3\n2. Apoptosis: Cell death detection by ELISA:\nCompounds of formula 1 were tested for the ability to cause apoptosis as follows:\nCells and media were collected, cells were pelleted, resuspended in 100 μl lysis buffer (50 mM Tris-Cl (pH=8.0), 20 mM EDTA, 1% NP-40e) and incubated 30 minutes at 4° C. to lyse. Cell debris was spun down and an aliquot (30 μl) of the […] was removed for protein determination and stored at -20° C. An additional 280 μl of lysis buffer, was added, mixed thoroughly and spun down at 14,000 RPM for 10 minutes at 4° C. An aliquot was removed (180 μl) and the sample was stored at -20° C. until testing.\nA commercially available apoptosis detection kit, obtained from Boehringer Mannheim (Cat. No. 1544-674), was used as per the directions provided with the kit (Cell Death Detection ELISA). However, the protocol was modified in that a 1:40 to 1:100 dilution of sample was prepared, rather than the recommended 1:10 dilution, due to the increase in cell number used to prepare the sample extract and the subsequent increase in ELISA reactivity. The assay measures apoptosis by quantifying the amount of nucleosomal fragmentation from the extracts of cells treated with the test compounds (samples). These nucleosomal fragments, generated by the activation of endonucleases, are a known downstream effector of apoptosis. Antihistone antibodies are used to fix any nucleosomal fragments in the sample to the well of the microtiter plates. The sample is then incubated with anti-DNA antibodies conjugated to peroxidase and subsequently incubated with the peroxidase substrate, ABTS. The resulting colorimetric change is measured spectrophotometrically at 405/490nm.\nThe total protein content of each sample was determined for the purpose of normalizing the ELISA values to amount of sample loaded. Microplate assay protocol described in the instruction manual, for (Biorad DC Assay, Cat.#500-0116) section 5.2. The protein concentrations were calculated based upon a linear regression curve.\nd) ELISA assay calculations\nRelative ELISA O.D. readings are determined by subtracting the ELISA plate background O.D. value. No drug control O.D. value (lysis buffer only) was subtracted from sample O.D. value. A correction coefficient (CC), based on the sample protein concentration compared to no drug control, was determined to correct the sample O.D. following subtraction of the background O.D. (BCS O.D.). The fold increase over no drug control is calculated and normalized to the total protein concentration of the samples by multiplying against the correction coefficient.\nTo determine the fold increase in ELISA O.D., obtain the following O.D. measurements:\nELISA plate background--lysis buffer only (EPB);\nno drug treated control--cell sample treated with DMSO (NDT);\ndrug treated sample--cell sample treated with a compound of formula 1 (DT) Subtract EPB from NDT (NDT-EPB) and DT (DT-EPB). The fold increase of the treated over the control is then (DT-EPB)/(NDT-EPB).\nTo determine the total protein concentration of the samples, obtain the total protein concentration in mg/ul calculated using standard linear regression formula (y=mx+b) based on BSA standards. B=ELISA background. Protein concentration (PC)(mg/ml)=(sample absorbance-b)/x.\nCorrection coefficient (cc) is (NDT)(PC)/(DT)(PC).\nDetermine fold increase of ELISA (FT) normalized to total PC:\nnDT is DT×cc (which is DT O.D. normalized to PC)\nnNDT is NDT×cc (which is NDT O.D. normalized to PC)\nFI normalized to PC is nDT/nNDT."}},
  "note": "Where two headings read alike, the source gives them in different places.",
  "data": [
    {"smiles": "C/C(=C/C=C/C(C)=C/C(=O)Nc1ccc(O)cc1)c1cc(C(F)(F)F)cc(C(F)(F)F)c1", "note": "[N-(4-hydroxyphenyl)-(2E,4E,6Z)-7-[3,5-bis(trifluoromethyl)phenyl]-3,7-dimethyl-2,4,6-heptatrienamide]", "values": [
      {"measurement": "inhibition at 1 µM", "setting": "[1]; 24 hours", "result": 47, "unit": "%"},
      {"measurement": "inhibition at 3.3 µM", "setting": "[1]; 24 hours", "result": 78, "unit": "%"},
      {"measurement": "inhibition at 10 µM", "setting": "[1]; 24 hours", "result": 77, "unit": "%"},
      {"measurement": "inhibition at 1 µM", "setting": "[1]; 48 hours", "result": 59, "unit": "%"},
      {"measurement": "inhibition at 3.3 µM", "setting": "[1]; 48 hours", "result": 91, "unit": "%"},
      {"measurement": "inhibition at 10 µM", "setting": "[1]; 48 hours", "result": 95, "unit": "%"},
      {"measurement": "inhibition at 1 µM", "setting": "[1]; 72 hours", "result": 94, "unit": "%"},
      {"measurement": "inhibition at 3.3 µM", "setting": "[1]; 72 hours", "result": 96, "unit": "%"},
      {"measurement": "inhibition at 10 µM", "setting": "[1]; 72 hours", "result": 98, "unit": "%"},
      {"measurement": "inhibition at 1 µM", "setting": "[2]; 24 hours", "result": 1, "unit": "%"},
      {"measurement": "inhibition at 3.3 µM", "setting": "[2]; 24 hours", "result": 14, "unit": "%"},
      {"measurement": "inhibition at 10 µM", "setting": "[2]; 24 hours", "result": 21, "unit": "%"},
      {"measurement": "inhibition at 1 µM", "setting": "[2]; 48 hours", "result": 0, "unit": "%"},
      {"measurement": "inhibition at 3.3 µM", "setting": "[2]; 48 hours", "result": 18, "unit": "%"},
      {"measurement": "inhibition at 10 µM", "setting": "[2]; 48 hours", "result": 30, "unit": "%"},
      {"measurement": "inhibition at 1 µM", "setting": "[2]; 72 hours", "result": 13, "unit": "%"},
      {"measurement": "inhibition at 3.3 µM", "setting": "[2]; 72 hours", "result": 56, "unit": "%"},
      {"measurement": "inhibition at 10 µM", "setting": "[2]; 72 hours", "result": 64, "unit": "%"},
      {"measurement": "fold induction at 1 µM", "setting": "[3]; ZR-75-1, 24 h, 24 hrs", "result": 2},
      {"measurement": "fold induction at 3.3 µM", "setting": "[3]; ZR-75-1, 24 h, 24 hrs", "result": 2},
      {"measurement": "fold induction at 10 µM", "setting": "[3]; ZR-75-1, 24 h, 24 hrs", "result": 3},
      {"measurement": "fold induction at 1 µM", "setting": "[3]; ZR-75-1, 48 h, 48 hrs", "result": 2},
      {"measurement": "fold induction at 3.3 µM", "setting": "[3]; ZR-75-1, 48 h, 48 hrs", "result": 19},
      {"measurement": "fold induction at 10 µM", "setting": "[3]; ZR-75-1, 48 h, 48 hrs", "result": 15},
      {"measurement": "fold induction at 1 µM", "setting": "[3]; ZR-75-1, 72 h, 72 hrs", "result": 2},
      {"measurement": "fold induction at 3.3 µM", "setting": "[3]; ZR-75-1, 72 h, 72 hrs", "result": 69},
      {"measurement": "fold induction at 10 µM", "setting": "[3]; ZR-75-1, 72 h, 72 hrs", "result": 67},
      {"measurement": "Induction of apoptosis (in words)", "setting": "[3]; after 48 hours", "result": "induces significant apoptosis"}
    ]}
  ]
}
